Patent US20240317683A1, “METHODS OF TREATING MOOD DISORDERS” (priority 2020, published 2024)
Entries after “also recorded” stand apart in the source; their conditions may differ. Where a name gives a salt, the structure may show the parent alone.

What was measured:
Format in all cases: in vivo
[1] = tested on: C57BL/6 mice; experiment: Marble burying test (MBT) in mice; conditions: SC, 30 minutes prior, 30-minute period, vs. vehicle
Method: Animals. Adult male C57BL/6 mice, aged 8-10 weeks (body weight 20-25 g), were used in these experiments. Animals were housed under controlled temperatures and 12-hour light/dark cycles (lights on between 07:00-19:00 h), with ad libitum food and water. All efforts were made to minimize suffering.
Drugs and Drug Administration. Compound 4 was prepared as described above. Desipramine HCl was commercially obtained. The test compound, vehicle, and the positive control desipramine were administered subcutaneously (SC), with doses calculated based on the freebase. Normal saline was used as the vehicle. All compounds were administered at a volume of 10 ml/kg. All treatments were administered 30 minutes prior to the start of behavioral testing. Group size was n=9-10 per treatment.
Marble Burying Test (MBT). […] Mice were handled for about 2 min daily for the 3 days prior to the beginning of the experimental procedure. Twenty glass marbles (16 mm diameter) were placed at equal distances in a 5×4 pattern on a 5-cm layer of corn-cob bedding, with marbles at least 2 cm from the borders of the cage. The total number of marbles buried were counted in three 10-minute time bins (total 30 minutes). A marble was considered buried when it was >⅔ covered by bedding material.
Statistical Analysis. The data points shown are the mean ±standard error of the mean (SEM). Analysis was performed using GraphPad Prism 6. […]

[2] = tested on: C57BL/6 mice; experiment: Conditioned place preference in mice; conditions: SC, abuse liability model, vs. vehicle; hydrochloride
Method: (§1) Animals. Male C57BL/6 mice, 5-8 weeks of age, (body weight 25-30 g; Envigo, Indianapolis, IN, USA) were housed 5 per polycarbonate tub with soft bedding in a temperature-and humidity-controlled vivarium. Mice were maintained under a 12-h light/dark cycle with lights on at 06:00. Food and water were available ad libitum. Animals acclimated to the vivarium for 1 week prior to experimental manipulations.
Drugs and Drug Administration. Compound 4 was prepared as described above. All other compounds were commercially obtained. Compound 4 and saline vehicle were administered subcutaneously (SC), with doses calculated based on the HCl salt, while the positive control oxycodone was administered intraperitoneally (IP), with the dose calculated based on the HCl salt. […]
Conditioned Place Preference. Reward and/or aversion was assessed in conditioned place preference chambers (Model MED-CPP-3013; Med Associates, St. Albans, VT). […]
Group size was n=10 per treatment. […] Final drug preference was assessed in a 15-minute post-conditioning trial and was calculated by subtracting the time in the drug-paired compartment at baseline from the time in the drug-paired compartment post-conditioning, with positive values reflecting reward and negative values reflecting aversion.
For all trials, time spent in chambers as well as movement was quantified by infrared photobeam detectors and calculated by Med-PC IV software. […]

[3] = tested on: C57BL/6 mice; experiment: Open field locomotor activity in mice; conditions: SC
Method: as §1
Drugs and Drug Administration. Compound 4 was prepared as described above. Compound 4 and saline vehicle were administered subcutaneously (SC), with doses calculated based on the HCl salt. Normal saline was used as the vehicle. All compounds were administered at a volume of 10 mL/kg. Compound 4 or vehicle were administered immediately before the start of the recording session.
Locomotor Activity. Locomotor activity was measured in experimental cages (length×width x height: 560×560×330 mm) by an animal movement analysis system SCANET MV-40 ([…] Co., Ltd., Toyama, Japan). The cumulative activity was recorded for 30 minutes prior to drug administration to establish a baseline, and then animals were recorded for 60 minutes immediately after drug administration. Cages were cleaned between testing sessions.
Statistical Analysis. The total number of beam breaks were summed into 5-minute time bins. The data points shown are the mean ±standard error of the mean (SEM). […]

Compound: CCN(C)CCc1c[nH]c2ccc(F)cc12 [Compound 4, N-ethyl-2-(5-fluoro-1H-indol-3-yl)-N-methylethan-1-amine hydrochloride]
- number of marbles buried [1]: dose-dependent reduction
- preference for the drug-paired compartment [2]: did not induce any significant preference; also recorded: not significantly different from vehicle
- total locomotor activity in the open field ([3]; 60 minutes after administration): dose-dependent decrease
- locomotor activity, highest dose group ([3]; highest dose group): near complete reduction in activity
